Data from patent publication US7442717B2, “Substituted 2-aminoimidazoles, process for their preparation, their use as medicament or diagnostic aid” (Sanofi-Aventis Deutschland GmbH, priority 2003, dated 2008).
Counter-ions that a name gives are not always drawn.

What was measured:
[1] = system: adrenergic α2 receptor; settings: literature, Ernsberger et al Eur. J. Pharmacol. 134, 1, 1987; cited from earlier work
[2] = biological target: NHE2 (Rattus norvegicus, UniProt P48763); settings: read-out: IC50 for NHE2; literature value, J. Orlowski et al; cited from earlier work
[3] = system: imidazoline I1 receptor; settings: literature, Ernsberger et al Eur. J. Pharmacol. 134, 1, 1987; cited from earlier work
[4] = biological target: T1, rNHE3 (Rattus norvegicus, UniProt P26433); assay: Recovery of intracellular pH (pHi) after acidification, BCECF fluorescence, in fibroblasts (LAP 1 cells); type: cell-based; settings: pH recovery in LAP 1 fibroblasts
T1 construct: expressed in transfected cells; host or cells: LAP 1 cells (fibroblasts)
Procedure: In this test, the recovery in the intracellular pH (pHi) after an acidification was ascertained, which is initiated if the NHE3 is capable of functioning, even under bicarbonate-free conditions. For this purpose, the pHi was determined using the pH-sensitive fluorescent dye BCECF (Calbiochem, the precursor BCECF-AM is employed). The cells (fibroblasts, LAP 1 cells) were initially loaded with BCECF. The BCECF fluorescence was determined in a “Ratio Fluorescence Spectrometer” (Photon Technology International, South Brunswick, N.J., USA) at excitation wavelengths of 505 and 440 nm and an emission wavelength of 535 nm and converted into the pHi using calibration curves. The cells were incubated in NH4Cl buffer (pH 7.4) (NH4Cl buffer: 115 mM NaCl, 20 mM NH4Cl, 5 mM KCl, 1 mM CaCl2, 1 mM MgSO4, 20 mM Hepes, 5 mM glucose, 1 mg/ml BSA; a pH of 7.4 is adjusted with 1 M NaOH) even during the BCECF loading. The intracellular acidification was induced by adding 975 μl of an NH4Cl-free buffer (see below) to 25 μl aliquots of the cells incubated in NH4Cl buffer. The subsequent rate of pH recovery was recorded for three minutes. To calculate the inhibitory potency of the tested substances, the cells were initially investigated in buffers with which a complete or absolutely no pH recovery took place. For complete pH recovery (100%), the cells were incubated in Na^+-containing buffer (133.8 mM NaCl, 4.7 mM KCl, 1.25 mM CaCl2, 1.25 mM MgCl2, 0.97 mM Na2HPO4, 0.23 mM NaH2PO4, 5 mM Hepes, 5 mM glucose, a pH of 7.0 is adjusted with 1 M NaOH). To determine the 0% value, the cells were incubated in an Na^+-free buffer (133.8 mM choline chloride, 4.7 mM KCl, 1.25 mM CaCl2, 1.25 mM MgCl2, 0.97 mM K2HPO4, 0.23 mM KH2PO4, 5 mM Hepes, 5 mM glucose, a pH of 7.0 is adjusted with 1 M KOH). The substances to be tested were made up in the Na^+-containing buffer. The recovery of the intracellular pH at each test concentration of a substance was expressed as a percentage of the maximum recovery. The IC50 value for the particular substance for the individual NHE subtypes was calculated from the pH recovery percentages using the Sigma-Plot program.

[5] = biological target: NHE3 (Oryctolagus cuniculus, UniProt P26432); settings: literature, M. Donowitz et al. Am. J. Physiol. 276; cited from earlier work
NHE3, sequence (P26432 30-832): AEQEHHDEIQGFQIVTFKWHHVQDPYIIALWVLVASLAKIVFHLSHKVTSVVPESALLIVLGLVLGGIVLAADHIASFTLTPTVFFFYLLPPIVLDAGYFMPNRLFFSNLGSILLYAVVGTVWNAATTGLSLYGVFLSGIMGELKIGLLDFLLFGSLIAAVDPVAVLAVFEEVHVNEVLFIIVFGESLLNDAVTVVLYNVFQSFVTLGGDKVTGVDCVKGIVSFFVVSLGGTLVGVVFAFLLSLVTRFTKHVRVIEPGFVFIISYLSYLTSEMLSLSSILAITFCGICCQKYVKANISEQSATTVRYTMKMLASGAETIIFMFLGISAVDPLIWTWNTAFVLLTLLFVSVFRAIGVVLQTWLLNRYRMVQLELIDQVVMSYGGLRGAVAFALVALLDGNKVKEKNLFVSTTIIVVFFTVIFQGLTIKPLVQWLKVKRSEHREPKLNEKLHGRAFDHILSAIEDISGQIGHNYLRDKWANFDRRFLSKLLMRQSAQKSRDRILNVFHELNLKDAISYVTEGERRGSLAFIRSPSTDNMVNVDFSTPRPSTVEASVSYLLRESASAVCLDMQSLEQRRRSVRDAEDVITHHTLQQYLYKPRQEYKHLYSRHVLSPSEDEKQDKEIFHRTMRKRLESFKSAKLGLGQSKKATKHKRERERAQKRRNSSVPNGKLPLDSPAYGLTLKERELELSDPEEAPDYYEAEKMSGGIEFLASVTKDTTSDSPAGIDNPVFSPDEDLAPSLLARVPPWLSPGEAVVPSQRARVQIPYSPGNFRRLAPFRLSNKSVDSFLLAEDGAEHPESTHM

T1 sequence (P26433 29-831): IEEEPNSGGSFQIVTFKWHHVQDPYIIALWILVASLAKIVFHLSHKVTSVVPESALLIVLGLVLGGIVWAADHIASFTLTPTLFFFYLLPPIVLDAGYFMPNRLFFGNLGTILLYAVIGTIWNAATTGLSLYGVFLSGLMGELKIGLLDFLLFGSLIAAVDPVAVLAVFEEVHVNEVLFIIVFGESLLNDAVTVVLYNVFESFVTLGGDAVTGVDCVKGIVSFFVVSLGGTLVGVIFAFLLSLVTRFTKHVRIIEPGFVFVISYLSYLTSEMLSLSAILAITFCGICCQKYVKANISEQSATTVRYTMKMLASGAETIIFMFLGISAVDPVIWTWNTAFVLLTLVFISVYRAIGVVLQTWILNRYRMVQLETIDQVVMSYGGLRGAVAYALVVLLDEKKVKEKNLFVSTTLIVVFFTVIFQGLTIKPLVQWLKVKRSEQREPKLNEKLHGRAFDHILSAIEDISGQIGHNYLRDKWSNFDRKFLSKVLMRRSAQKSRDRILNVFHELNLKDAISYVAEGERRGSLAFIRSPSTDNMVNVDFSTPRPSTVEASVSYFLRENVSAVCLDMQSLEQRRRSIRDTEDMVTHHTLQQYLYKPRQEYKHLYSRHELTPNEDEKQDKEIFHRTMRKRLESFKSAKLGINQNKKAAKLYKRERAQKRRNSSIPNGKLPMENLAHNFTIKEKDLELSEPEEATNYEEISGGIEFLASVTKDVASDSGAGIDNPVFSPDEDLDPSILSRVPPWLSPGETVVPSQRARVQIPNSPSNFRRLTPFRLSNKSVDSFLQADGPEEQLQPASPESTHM
NHE2, sequence (P48763 whole entry): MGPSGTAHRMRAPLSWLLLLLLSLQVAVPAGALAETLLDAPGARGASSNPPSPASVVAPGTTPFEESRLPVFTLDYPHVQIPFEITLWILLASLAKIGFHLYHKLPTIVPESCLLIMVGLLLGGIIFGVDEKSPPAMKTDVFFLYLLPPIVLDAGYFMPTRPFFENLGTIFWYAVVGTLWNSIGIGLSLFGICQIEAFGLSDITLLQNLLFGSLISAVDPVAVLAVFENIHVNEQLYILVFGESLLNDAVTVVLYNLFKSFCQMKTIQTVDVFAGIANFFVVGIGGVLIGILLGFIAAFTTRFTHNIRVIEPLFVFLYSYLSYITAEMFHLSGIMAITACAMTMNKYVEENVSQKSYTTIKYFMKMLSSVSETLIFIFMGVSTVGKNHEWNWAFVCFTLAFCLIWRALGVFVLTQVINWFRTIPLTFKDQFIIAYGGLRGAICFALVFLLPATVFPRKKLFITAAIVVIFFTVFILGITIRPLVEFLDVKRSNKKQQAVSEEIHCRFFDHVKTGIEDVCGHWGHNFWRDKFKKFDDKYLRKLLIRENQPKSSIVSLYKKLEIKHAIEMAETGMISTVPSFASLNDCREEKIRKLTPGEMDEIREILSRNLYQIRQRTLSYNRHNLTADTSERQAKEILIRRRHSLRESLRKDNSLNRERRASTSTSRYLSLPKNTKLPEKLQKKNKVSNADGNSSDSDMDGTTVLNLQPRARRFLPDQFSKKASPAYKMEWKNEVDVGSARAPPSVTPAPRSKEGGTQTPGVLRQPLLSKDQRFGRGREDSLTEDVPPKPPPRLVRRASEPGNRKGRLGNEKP

Row | SMILES | IC50 [4] [µM] | other results
1 | Clc1cccc(Cl)c1N=C1NCCN1 [Clonidine] |  | affinity for the adrenergic α2 receptor [1]: high affinity; IC50 [2]: 42000 nM; affinity for the imidazoline I1 receptor [3]: high affinity
2 | Clc1cccc(Cl)c1Nc1ncc[nH]1 [Example 1, (2,6-Dichlorophenyl)(1H-imidazol-2-yl)amine hydrochloride] | 7.7 | 
3 | Cc1c[nH]c(Nc2c(Cl)cccc2Cl)n1 [Example 2, (2,6-Dichlorophenyl)(4-methyl-1H-imidazol-2-yl)amine hydrochloride] | 1.7 | 
4 | Cc1nc(Nc2c(Cl)cccc2Cl)[nH]c1C [Example 3, (2,6-Dichlorophenyl)(4,5-dimethyl-1H-imidazol-2-yl)amine hydrochloride] | 0.84 | 
5 | Clc1cccc(Cl)c1Nc1nc2c([nH]1)CCCC2 [Example 5, (2,6-Dichlorophenyl)(4,5,6,7-tetrahydro-1H-benzoimidazol-2-yl)amine hydrochloride] | 0.24 | 
6 | N#Cc1nc(Nc2c(Cl)cccc2Cl)[nH]c1C#N [Example 6, 2-(2,6-Dichlorophenylamino)-1H-imidazole-4,5-dicarbonitrile] | 98 | 
7 | CN(c1nc2c([nH]1)CCCC2)c1c(Cl)cccc1Cl [Example 7, hydrochloride] | 0.28 | 
8 | CC(C)[C@@H](CC[C@@H](C)[C@H]1CC[C@H]2[C@@H]3[C@H](O)C[C@H]4C[C@@H](NCCCNCCCCN)CC[C@]4(C)[C@H]3CC[C@]12C)OS(=O)(=O)O [Squalamine] |  | time to maximum strength of NHE3-inhibiting effect [5]: only after one hour
